Among the data in ChEMBL document CHEMBL1122119 are Cyclase stimulation values, retold here.

The target of assay [1] is T1, Adenylate cyclase (Rattus norvegicus) (UniProt D4A3N4+P26770+Q04400+P26769+Q03343+P40146+Q8CFM9+P21932). Description: Ability (250 uM) to stimulate dopamine sensitive adenylate cyclase from rat corpus striatum in the presence of excess ATP. The assay is classed as functional.
Assay [2] has as its target T1, Adenylate cyclase (Rattus norvegicus). Briefly: Ability (50 uM) to stimulate dopamine sensitive adenylate cyclase from rat corpus striatum in the presence of excess ATP. The assay is classed as functional.

Take `CN1CCc2cc(O)cc3c2[C@@H]1Cc1ccc(O)c(O)c1-3`: the Cyclase stimulation in assay [1] is 9%.

Turning to `CN1CCc2cc(O)cc3c2[C@H]1Cc1ccc(O)c(O)c1-3`, the Cyclase stimulation in assay [1] came to 59%. On to `CN1CCc2cccc3c2[C@H]1Cc1ccc(O)c(O)c1-3`, for which the Cyclase stimulation in assay [2] was found to be 48%. As for `NCCc1ccc(O)c(O)c1`, in assay [2], the Cyclase stimulation came to 58%.
